In patent US5543406A, “Inhibitors of 5-α-testosterone reductase” (priority 1994, dated 1996):

Legend:
Steroid 5-α-Reductase [1] = target: T1, Steroid 5-α-Reductase (Homo sapiens, UniProt P31213); experiment: Steroid 5-α-reductase in vitro assay, human prostate microsomes (BPH patients); format: biochemical; settings: human prostatic microsomes; 100 nM [3H]-testosterone, 1 mM NADPH, 60 minutes at 37° C.
T1 construct: microsomes derived from prostate tissue of benign prostatic hypertrophy (BPH) patients; from tissue; host or cells: prostate tissue of BPH patients, microsomes
T1 sequence (P31213 1-254): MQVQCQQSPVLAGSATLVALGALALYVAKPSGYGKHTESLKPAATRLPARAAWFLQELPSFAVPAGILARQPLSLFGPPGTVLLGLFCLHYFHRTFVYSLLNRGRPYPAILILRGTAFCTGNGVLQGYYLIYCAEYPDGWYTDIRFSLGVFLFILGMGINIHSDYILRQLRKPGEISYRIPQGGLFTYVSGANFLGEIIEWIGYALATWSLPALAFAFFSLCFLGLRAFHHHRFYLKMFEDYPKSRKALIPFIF

Steroid 5-α-Reductase [2] = experiment: Steroid 5-α-reductase in vitro assay, rat prostate microsomes; format: biochemical; settings: rat prostatic microsomes; 100 nM [3H]-testosterone, 1 mM NADPH, 60 minutes at 37° C.; read-out: ID50 Rat

IC50 (Steroid 5-α-Reductase [1]) [nM]	IC50 (Steroid 5-α-Reductase [2]) [nM]	SMILES
< 10	10 to 100	CCN(CC)C(=O)[C@H]1CC[C@H]2[C@@H]3CNC4=CC(=O)CC[C@]4(C)[C@H]3CC[C@]12C [Compound 1, 17β-N,N-Diethylcarbamoyl-6-azaandrost-4-en-3-one]
< 10	10 to 100	CCN(CC)C(=O)[C@H]1CC[C@H]2[C@@H]3CN(C)C4=CC(=O)CC[C@]4(C)[C@H]3CC[C@]12C [Compound 2, 17β-N,N-Diethylcarbamoyl-6-methyl-6-azaandrost-4-en-3-one]
–	10 to 100	CC(C)(C)NC(=O)[C@H]1CC[C@H]2[C@@H]3CNC4=CC(=O)CC[C@]4(C)[C@H]3CC[C@]12C [Compound 3, 17β-N-t-Butylcarbamoyl-6-azaandrost-4-en-3-one]
< 10	100 to 1000	C[C@]12CC[C@H]3[C@@H](CNC4=CC(=O)CC[C@@]43C)[C@@H]1CC[C@@H]2C(=O)Sc1ccccn1 [Compound 4, 17β-(2-Pyridinylthiocarbonyl)-6-azaandrost-4-en-3-one]
< 10	10 to 100	CC(C)CC(=O)[C@H]1CC[C@H]2[C@@H]3CNC4=CC(=O)CC[C@]4(C)[C@H]3CC[C@]12C [Compound 5, 17β-(1-Oxo-3-methylbutyl)-6-azaandrost-4-en-3-one]
10 to 100	100 to 1000	CCN(CC)C(=O)[C@H]1CC[C@H]2[C@@H]3CNC4=CC(=O)C=C[C@]4(C)[C@H]3CC[C@]12C [Compound 6, 17β-N,N-Diethylcarbamoyl-6-azaandrost-1,4-dien-3-one]
–	10 to 100	CCN(CC)C(=O)[C@H]1CC[C@H]2[C@@H]3CNC4=C(Cl)C(=O)CC[C@]4(C)[C@H]3CC[C@]12C [Compound 8, 17β-N,N-Diethylcarbamoyl-6-azaandrost-4-chloro-4-en-3-one]
< 10	100 to 1000	CCN(CC)C(=O)[C@H]1CC[C@H]2[C@@H]3CNC4=C(Br)C(=O)CC[C@]4(C)[C@H]3CC[C@]12C [Compound 9, 17β-N,N-Diethylcarbamoyl-6-azaandrost-4-bromo-4-en-3-one]
–	100 to 1000	CCN(CC)C(=O)[C@H]1CC[C@H]2[C@@H]3CNC4=C(C)C(=O)CC[C@]4(C)[C@H]3CC[C@]12C [Compound 11, 17β-N,N-Diethylcarbamoyl-6-azaandrost-4-methyl-4-en-3-one]
< 10	100 to 1000	CC(C)N(C(=O)[C@H]1CC[C@H]2[C@@H]3CNC4=CC(=O)CC[C@]4(C)[C@H]3CC[C@]12C)C(C)C [Compound 17, 17β-N,N-Diisopropylcarbamoyl-6-azaandrost-4-en-3-one]
< 10	10 to 100	CC(C)N(C(=O)[C@H]1CC[C@H]2[C@@H]3CN(C)C4=CC(=O)CC[C@]4(C)[C@H]3CC[C@]12C)C(C)C [Compound 18, 17β-N,N-Diisopropylcarbamoyl-6-methyl-6-azaandrost-4-en-3-one]
< 10	< 10	CN1C[C@H]2[C@@H]3CC[C@H](C(=O)NC45CC6CC(CC(C6)C4)C5)[C@@]3(C)CC[C@@H]2[C@@]2(C)CCC(=O)C=C12 [Compound 20, 17β-N-1-Adamantylcarbamoyl-6-methyl-6-azaandrost-4-en-3-one]
< 10	100 to 1000	CON(C)C(=O)[C@H]1CC[C@H]2[C@@H]3CNC4=CC(=O)CC[C@]4(C)[C@H]3CC[C@]12C [Compound 21, 17β-N-Methoxy-N-methylcarbamoyl-6-azaandrost-4-en-3-one]
10 to 100	100 to 1000	C[C@]12CC[C@H]3[C@@H](CNC4=CC(=O)CC[C@@]43C)[C@@H]1CC[C@@H]2C(=O)N1CCOCC1 [Compound 23, 17β-N-Morpholinocarbamoyl-6-azaandrost-4-en-3-one]
–	10 to 100	CC(C)CC(=O)[C@H]1CC[C@H]2[C@@H]3CN(C)C4=CC(=O)CC[C@]4(C)[C@H]3CC[C@]12C [Compound 26, 17β-(1-Oxo-3-methylbutyl)-6-methyl-6-azaandrost-4-en-3-one]
10 to 100	100 to 1000	CCN(CC)C(=O)[C@H]1CC[C@H]2[C@@H]3CN(C)C4=CC(=O)C=C[C@]4(C)[C@H]3CC[C@]12C [Compound 27, 17β-N,N-Diethylcarbamoyl-6-methyl-6-azaandrost-1,4-dien-3-one]
10 to 100	100 to 1000	CC(C)(C)NC(=O)[C@H]1CC[C@H]2[C@@H]3CNC4=CC(=O)C=C[C@]4(C)[C@H]3CC[C@]12C [Compound 28, 17β-N-t-Butylcarbamoyl-6-azaandrost-1,4-dien-3-one]
10 to 100	100 to 1000	CN1C[C@H]2[C@@H]3CC[C@H](C(=O)NC(C)(C)C)[C@@]3(C)CC[C@@H]2[C@@]2(C)C=CC(=O)C=C12 [Compound 29, 17β-N-t-Butylcarbamoyl-6-methyl-6-azaandrost-1,4-dien-3-one]

IC50 (Steroid 5-α-Reductase [1]) [nM]	IC50 (Steroid 5-α-Reductase [2]) [nM]	SMILES
< 10	10 to 100	CN1C[C@H]2[C@@H]3CC[C@H](C(=O)NC45CC6CC(CC(C6)C4)C5)[C@@]3(C)CC[C@@H]2[C@@]2(C)C=CC(=O)C=C12 [Compound 31, 17β-N-1-Adamantylcarbamoyl-6-methyl-6-azaandrost-1,4-dien-3-one]
100 to 1000	–	CCN(CC)C(=O)[C@H]1CC[C@H]2[C@@H]3CN(CCCCC(=O)O)C4=CC(=O)CC[C@]4(C)[C@H]3CC[C@]12C [Compound 48, 17β-N,N-Diethylcarbamoyl-6-(5-pentanoic acid)-6-azaandrost-4-en-3-one]
100 to 1000	–	CCN(CC)C(=O)[C@H]1CC[C@H]2[C@@H]3CN(CCCCC(=O)OC)C4=CC(=O)CC[C@]4(C)[C@H]3CC[C@]12C [Compound 49, 17β-N,N-Diethylcarbamoyl-6-(methyl-5-pentanoate)-6-azaandrost-4-en-3-one]
100 to 1000	–	CCN(CC)C(=O)[C@H]1CC[C@H]2[C@@H]3CN(CCCCCC(=O)O)C4=CC(=O)CC[C@]4(C)[C@H]3CC[C@]12C [Compound 50, 17β-N,N-Diethylcarbamoyl-6-(6-hexanoic acid)-6-azaandrost-4-en-3-one]
100 to 1000	–	CCOC(=O)CCCCCN1C[C@H]2[C@@H]3CC[C@H](C(=O)N(CC)CC)[C@@]3(C)CC[C@@H]2[C@@]2(C)CCC(=O)C=C12 [Compound 51, 17β-N,N-Diethylcarbamoyl-6-(ethyl-6-hexanoate)-6-azaandrost-4-en-3-one]
100 to 1000	–	CCN(CC)C(=O)[C@H]1CC[C@H]2[C@@H]3CN(CCCN4C(=O)c5ccccc5C4=O)C4=CC(=O)CC[C@]4(C)[C@H]3CC[C@]12C [Compound 52, 17β-N,N-Diethylcarbamoyl-6-(3-phthalimidylpropyl)-6-azaandrost-4-en-3-one]
100 to 1000	–	CCN(CC)C(=O)[C@H]1CC[C@H]2[C@@H]3CN(CCCCN4C(=O)c5ccccc5C4=O)C4=CC(=O)CC[C@]4(C)[C@H]3CC[C@]12C [Compound 53, 17β-N,N-Diethylcarbamoyl-6-(4-phthalimidylbutyl)-6-azaandrost-4-en-3-one]
100 to 1000	–	CCN(CC)C(=O)[C@H]1CC[C@H]2[C@@H]3CN(CCOC)C4=CC(=O)CC[C@]4(C)[C@H]3CC[C@]12C [Compound 54, 17β-N,N-Diethylcarbamoyl-6-(2-methoxyethyl)-6-azaandrost-4-en-3-one]
< 10	< 10	C[C@]12CC[C@H]3[C@@H](CNC4=C(Br)C(=O)CC[C@@]43C)[C@@H]1CC[C@@H]2C(=O)NC12CC3CC(CC(C3)C1)C2 [Compound 55, 17β-N-1-Adamantylcarbamoyl-6-azaandrost-4-bromo-4-en-3-one]
10 to 100	< 10	CC1=C2NC[C@H]3[C@@H]4CC[C@H](C(=O)NC56CC7CC(CC(C7)C5)C6)[C@@]4(C)CC[C@@H]3[C@@]2(C)CCC1=O [Compound 56, 17β-N-1-Adamantylcarbamoyl-6-azaandrost-4-methyl-4-en-3-one]
10 to 100	< 10	CC1=C2N(C)C[C@H]3[C@@H]4CC[C@H](C(=O)NC56CC7CC(CC(C7)C5)C6)[C@@]4(C)CC[C@@H]3[C@@]2(C)CCC1=O [Compound 57, 17β-N-1-Adamantylcarbamoyl-6-methyl-6-azaandrost-4-methyl-4-en-3-one]
–	10 to 100	CC(C)CC(=O)[C@H]1CC[C@H]2[C@@H]3CNC4=C(Br)C(=O)CC[C@]4(C)[C@H]3CC[C@]12C [Compound 66, 17β-(1-Oxo-3-methylbutyl)-6-azaandrost-4-bromo-4-en-3-one]
–	100 to 1000	CCN(CC)C(=O)[C@H]1CC[C@H]2[C@@H]3CN(C)C4=C(C)C(=O)CC[C@]4(C)[C@H]3CC[C@]12C [Compound 68, 17β-N,N-Diethylcarbamoyl-6-methyl-6-azaandrost-4-methyl-4-en-3-one]
–	100 to 1000	CC1=C2N(C)C[C@H]3[C@@H]4CC[C@H](C(=O)NC(C)(C)C)[C@@]4(C)CC[C@@H]3[C@@]2(C)CCC1=O [Compound 69, 17β-N-t-Butylcarbamoyl-6-methyl-6-azaandrost-4-methyl-4-en-3-one]
10 to 100	–	CCN(CC)C(=O)[C@H]1CC[C@H]2[C@@H]3CNC4=C(F)C(=O)CC[C@]4(C)[C@H]3CC[C@]12C [Compound 70, 17β-N,N-Diethylcarbamoyl-6-azaandrost-4-fluoro-4-en-3-one]
< 10	–	C[C@]12CC[C@H]3[C@@H](CNC4=CC(=O)CC[C@@]43C)[C@@H]1CC[C@@H]2C(=O)NC(c1ccccc1)(c1ccccc1)c1ccccc1 [Compound 71, 17β-N-Triphenylmethylcarbamoyl-6-azaandrost-4-en-3-one]
< 10	–	C[C@]12CC[C@H]3[C@@H](CNC4=CC(=O)CC[C@@]43C)[C@@H]1CC[C@@H]2C(=O)Nc1cccc2ccccc12 [Compound 72, 17β-N-1-Napthylcarbamoyl-6-azaandrost-4-en-3-one]
